Reference: patent US8895695B2, “Template-fixed beta-hairpin peptidomimetics with CXCR4 antagonizing activity” (priority 2003, dated 2014)
Bridge positions count the residues as written; N and C are the ends. Square brackets hold non-standard residues; d marks the D form. Peptide text beside a SMILES is read from it. 2Nal = N[C@@H](Cc1ccc2ccccc2c1)C(=O)O; Cit = NC(=O)NCCC[C@H](N)C(=O)O

Legend:
in vitro = conditions: human
CXCR4 = CXCR4 (Homo sapiens, UniProt P61073); experiment: Ca2+-assay method 2 (Flexstation, SDF-1 induced calcium mobilization); type: cell-based; parameters: expressed in transfected cells; host or cells: mouse pre-B cell line 300-19; conditions: method 2 (Ex. 54-160), mouse pre-B cell line 300-19 with human CXCR4, 10 nM SDF-1; read-out: IC50 (nM) Ca^2+ assay
Sequence of CXCR4 (P61073 whole entry): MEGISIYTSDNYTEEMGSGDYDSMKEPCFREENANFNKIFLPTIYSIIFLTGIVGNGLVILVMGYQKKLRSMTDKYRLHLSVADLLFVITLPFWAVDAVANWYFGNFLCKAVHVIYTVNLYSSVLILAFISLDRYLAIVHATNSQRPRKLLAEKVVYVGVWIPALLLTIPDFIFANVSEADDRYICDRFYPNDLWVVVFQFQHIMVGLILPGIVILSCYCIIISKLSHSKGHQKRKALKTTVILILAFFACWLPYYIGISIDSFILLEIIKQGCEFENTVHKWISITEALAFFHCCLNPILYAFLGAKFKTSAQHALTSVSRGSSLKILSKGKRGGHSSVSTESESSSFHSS

[1] = system: human red blood cells (hRBC); experiment: Hemolysis; type: cell-based
Procedure, shortened: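 Percent lysis taken as OD540 of peptide-treated sample over OD540 of the water/0.1% Triton X-100 full-lysis control, with PBS giving 0%. Peptides at 100 μM exposed to PBS-washed human RBCs (20% v/v) for 1 hour at 37° C. before centrifugation and 20-fold dilution of supernatant.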
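Wherever GI50 is given: MTT reduction read as absorbance at 595 nm, blank-corrected and expressed as percent growth relative to the time-zero cell reading, triplicate wells per concentration.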

Row | SMILES | GI50 at 48 h (in vitro) [nM] | IC50 (CXCR4) [nM] | Hemolysis at 100 μM [1] [%]
1 | CSCC[C@@H]1NC(=O)[C@H](Cc2ccc(O)cc2)NC(=O)[C@@H]2CSSC[C@H](NC(=O)[C@H](CCCNC(N)=O)NC(=O)[C@H](CCCNC(=N)N)NC(=O)[C@H](Cc3ccc(O)cc3)NC(=O)[C@@H]3CCCN3C(=O)[C@H]3CCCN3C(=O)[C@H](CCCCN)NC1=O)C(=O)N[C@@H](CCCNC(=N)N)C(=O)NCC(=O)N1CCC[C@@H]1C(=O)N[C@@H](CCCNC(=N)N)C(=O)N[C@@H](CCCNC(=N)N)C(=O)N[C@@H](Cc1ccc3ccccc3c1)C(=O)N2 [Ex. 83] (cyclo(YR[Cit]CRG[dP]RR[2Nal]CYMK[dP]P); disulfide 4-11) | 48000 | 3.7 | 0.1
2 | N=C(N)NCCC[C@@H]1NC(=O)[C@@H]2CSSC[C@H](NC(=O)[C@H](Cc3ccc4ccccc4c3)NC(=O)[C@H](CCCNC(=N)N)NC(=O)[C@H](CCCNC(=N)N)NC(=O)[C@H]3CCCN3C(=O)CNC1=O)C(=O)N[C@@H](Cc1ccc(O)cc1)C(=O)N[C@@H](CCC(N)=O)C(=O)N[C@@H](CC(N)=O)C(=O)N1CCC[C@@H]1C(=O)N1CCC[C@H]1C(=O)N[C@@H](Cc1ccc(O)cc1)C(=O)N[C@@H](CCCNC(=N)N)C(=O)N[C@@H](CCCNC(N)=O)C(=O)N2 [Ex. 84] (cyclo(YR[Cit]CRG[dP]RR[2Nal]CYQN[dP]P); disulfide 4-11) | 62000 | 3.9 | 0
3 | C[C@@H]1NC(=O)[C@H](CCC(N)=O)NC(=O)[C@H](Cc2ccc(O)cc2)NC(=O)[C@@H]2CSSC[C@H](NC(=O)[C@H](CCCNC(N)=O)NC(=O)[C@H](CCCNC(=N)N)NC(=O)[C@H](Cc3ccc(O)cc3)NC(=O)[C@@H]3CCCN3C(=O)[C@H]3CCCN3C1=O)C(=O)N[C@@H](CCCNC(=N)N)C(=O)NCC(=O)N1CCC[C@@H]1C(=O)N[C@@H](CCCNC(=N)N)C(=O)N[C@@H](CCCNC(=N)N)C(=O)N[C@@H](Cc1ccc3ccccc3c1)C(=O)N2 [Ex. 86] (cyclo(YR[Cit]CRG[dP]RR[2Nal]CYQA[dP]P); disulfide 4-11) | 62000 | 0.69 | 0
4 | N=C(N)NCCC[C@@H]1NC(=O)[C@@H]2CSSC[C@H](NC(=O)[C@H](Cc3ccc4ccccc4c3)NC(=O)[C@H](CCCNC(=N)N)NC(=O)[C@H](CCCNC(=N)N)NC(=O)[C@H]3CCCN3C(=O)CNC1=O)C(=O)N[C@@H](Cc1ccc(O)cc1)C(=O)N[C@@H](CCC(N)=O)C(=O)N[C@@H](CO)C(=O)N1CCC[C@@H]1C(=O)N1CCC[C@H]1C(=O)N[C@@H](Cc1ccc(O)cc1)C(=O)N[C@@H](CCCNC(=N)N)C(=O)N[C@@H](CCCNC(N)=O)C(=O)N2 [Ex. 87] (cyclo(YR[Cit]CRG[dP]RR[2Nal]CYQS[dP]P); disulfide 4-11) | 64000 | 3.5 | 0
5 | N=C(N)NCCC[C@@H]1NC(=O)[C@@H]2CSSC[C@H](NC(=O)[C@H](Cc3ccc4ccccc4c3)NC(=O)[C@H](CCCNC(=N)N)NC(=O)[C@H](CCCNC(=N)N)NC(=O)[C@H]3CCCN3C(=O)CNC1=O)C(=O)N[C@@H](Cc1ccc(O)cc1)C(=O)N[C@@H](CCC(N)=O)C(=O)N[C@@H](CCCCN)C(=O)N1CCC[C@@H]1C(=O)N1CCC[C@H]1C(=O)N[C@@H](CC(=O)O)C(=O)N[C@@H](CCCNC(=N)N)C(=O)N[C@@H](CCCNC(N)=O)C(=O)N2 [Ex. 88] (cyclo(DR[Cit]CRG[dP]RR[2Nal]CYQK[dP]P); disulfide 4-11) | 44000 | 2.5 | 0
6 | N=C(N)NCCC[C@@H]1NC(=O)[C@@H]2CSSC[C@H](NC(=O)[C@H](Cc3ccc4ccccc4c3)NC(=O)[C@H](CCCNC(=N)N)NC(=O)[C@H](CCCNC(=N)N)NC(=O)[C@H]3CCCN3C(=O)CNC1=O)C(=O)N[C@@H](Cc1ccc(O)cc1)C(=O)N[C@@H](CCC(N)=O)C(=O)N[C@@H](CCCCN)C(=O)N1CCC[C@@H]1C(=O)N1CCC[C@H]1C(=O)N[C@@H](CO)C(=O)N[C@@H](CCCNC(=N)N)C(=O)N[C@@H](CCCNC(N)=O)C(=O)N2 [Ex. 89] (cyclo(SR[Cit]CRG[dP]RR[2Nal]CYQK[dP]P); disulfide 4-11) | 50000 | 0.5 | 0
7 | CC(C)[C@@H]1NC(=O)[C@@H]2CCCN2C(=O)[C@H]2CCCN2C(=O)[C@H](CCCCN)NC(=O)[C@H](CCC(N)=O)NC(=O)[C@H](Cc2ccc(O)cc2)NC(=O)[C@@H]2CSSC[C@H](NC(=O)[C@H](CCCNC(N)=O)NC(=O)[C@H](CCCNC(=N)N)NC1=O)C(=O)N[C@@H](CCCNC(=N)N)C(=O)NCC(=O)N1CCC[C@@H]1C(=O)N[C@@H](CCCNC(=N)N)C(=O)N[C@@H](CCCNC(=N)N)C(=O)N[C@@H](Cc1ccc3ccccc3c1)C(=O)N2 [Ex. 90] (cyclo(VR[Cit]CRG[dP]RR[2Nal]CYQK[dP]P); disulfide 4-11) | 57000 | 19.5 | 0.1
8 | CSCC[C@@H]1NC(=O)[C@@H]2CCCN2C(=O)[C@H]2CCCN2C(=O)[C@H](CCCCN)NC(=O)[C@H](CCC(N)=O)NC(=O)[C@H](Cc2ccc(O)cc2)NC(=O)[C@@H]2CSSC[C@H](NC(=O)[C@H](CCCNC(N)=O)NC(=O)[C@H](CCCNC(=N)N)NC1=O)C(=O)N[C@@H](CCCNC(=N)N)C(=O)NCC(=O)N1CCC[C@@H]1C(=O)N[C@@H](CCCNC(=N)N)C(=O)N[C@@H](CCCNC(=N)N)C(=O)N[C@@H](Cc1ccc3ccccc3c1)C(=O)N2 [Ex. 91] (cyclo(MR[Cit]CRG[dP]RR[2Nal]CYQK[dP]P); disulfide 4-11) | 48000 | 2.1 | 0.2
9 | N=C(N)NCCC[C@@H]1NC(=O)[C@@H]2CSSC[C@H](NC(=O)[C@H](Cc3ccc4ccccc4c3)NC(=O)[C@H](CCCNC(=N)N)NC(=O)[C@H](CCCNC(=N)N)NC(=O)[C@H]3CCCN3C(=O)CNC1=O)C(=O)N[C@@H](Cc1ccc(O)cc1)C(=O)N[C@@H](CCC(N)=O)C(=O)N[C@@H](CCCCN)C(=O)N1CCC[C@@H]1C(=O)N1CCC[C@H]1C(=O)N[C@@H](Cc1ccc(O)cc1)C(=O)N[C@@H](CCCNC(=N)N)C(=O)N[C@@H](CC(N)=O)C(=O)N2 [Ex. 92] (cyclo(YRNCRG[dP]RR[2Nal]CYQK[dP]P); disulfide 4-11) | 53000 | 1.1 | 0.5
10 | N=C(N)NCCC[C@@H]1NC(=O)[C@@H]2CSSC[C@H](NC(=O)[C@H](Cc3ccc4ccccc4c3)NC(=O)[C@H](CCCNC(=N)N)NC(=O)[C@H](CCCNC(=N)N)NC(=O)[C@H]3CCCN3C(=O)CNC1=O)C(=O)N[C@@H](Cc1ccc(O)cc1)C(=O)N[C@@H](CCC(N)=O)C(=O)N[C@@H](CCCCN)C(=O)N1CCC[C@@H]1C(=O)N1CCC[C@H]1C(=O)N[C@@H](Cc1ccc(O)cc1)C(=O)N[C@@H](CCCNC(=N)N)C(=O)N[C@@H](CC(=O)O)C(=O)N2 [Ex. 93] (cyclo(YRDCRG[dP]RR[2Nal]CYQK[dP]P); disulfide 4-11) | > 100000 | 4.3 | 0.2
11 | N=C(N)NCCC[C@@H]1NC(=O)[C@@H]2CSSC[C@H](NC(=O)[C@H](Cc3ccc4ccccc4c3)NC(=O)[C@H](CCCNC(=N)N)NC(=O)[C@H](CCCNC(=N)N)NC(=O)[C@H]3CCCN3C(=O)CNC1=O)C(=O)N[C@@H](Cc1ccc(O)cc1)C(=O)N[C@@H](CCC(N)=O)C(=O)N[C@@H](CCCCN)C(=O)N1CCC[C@@H]1C(=O)N1CCC[C@H]1C(=O)N[C@@H](Cc1ccc(O)cc1)C(=O)N[C@@H](CCCNC(=N)N)C(=O)N[C@@H](CCCCN)C(=O)N2 [Ex. 94] (cyclo(YRKCRG[dP]RR[2Nal]CYQK[dP]P); disulfide 4-11) | 45000 | 2.5 | 0.2
12 | C[C@@H]1NC(=O)[C@H](CCCNC(=N)N)NC(=O)[C@H](Cc2ccc(O)cc2)NC(=O)[C@@H]2CCCN2C(=O)[C@H]2CCCN2C(=O)[C@H](CCCCN)NC(=O)[C@H](CCC(N)=O)NC(=O)[C@H](Cc2ccc(O)cc2)NC(=O)[C@@H]2CSSC[C@H](NC1=O)C(=O)N[C@@H](CCCNC(=N)N)C(=O)NCC(=O)N1CCC[C@@H]1C(=O)N[C@@H](CCCNC(=N)N)C(=O)N[C@@H](CCCNC(=N)N)C(=O)N[C@@H](Cc1ccc3ccccc3c1)C(=O)N2 [Ex. 95] (cyclo(YRACRG[dP]RR[2Nal]CYQK[dP]P); disulfide 4-11) | 41000 | 2.9 | 0.1
13 | N=C(N)NCCC[C@@H]1NC(=O)[C@@H]2CSSC[C@H](NC(=O)[C@H](Cc3ccc4ccccc4c3)NC(=O)[C@H](CCCNC(=N)N)NC(=O)[C@H](CCCNC(=N)N)NC(=O)[C@H]3CCCN3C(=O)CNC1=O)C(=O)N[C@@H](Cc1ccc(O)cc1)C(=O)N[C@@H](CCC(N)=O)C(=O)N[C@@H](CCCCN)C(=O)N1CCC[C@@H]1C(=O)N1CCC[C@H]1C(=O)N[C@@H](Cc1ccc(O)cc1)C(=O)N[C@@H](CCCNC(=N)N)C(=O)N[C@@H](CO)C(=O)N2 [Ex. 96] (cyclo(YRSCRG[dP]RR[2Nal]CYQK[dP]P); disulfide 4-11) | 69000 | 3 | 1
14 | CC(C)C[C@@H]1NC(=O)[C@H](CCCNC(=N)N)NC(=O)[C@H](Cc2ccc(O)cc2)NC(=O)[C@@H]2CCCN2C(=O)[C@H]2CCCN2C(=O)[C@H](CCCCN)NC(=O)[C@H](CCC(N)=O)NC(=O)[C@H](Cc2ccc(O)cc2)NC(=O)[C@@H]2CSSC[C@H](NC1=O)C(=O)N[C@@H](CCCNC(=N)N)C(=O)NCC(=O)N1CCC[C@@H]1C(=O)N[C@@H](CCCNC(=N)N)C(=O)N[C@@H](CCCNC(=N)N)C(=O)N[C@@H](Cc1ccc3ccccc3c1)C(=O)N2 [Ex. 97] (cyclo(YRLCRG[dP]RR[2Nal]CYQK[dP]P); disulfide 4-11) | 44000 | 4.3 | 0.8
